The target of assay [1] is T1, His-tagged human Aurora A (Homo sapiens, UniProt O14965).
T1 construct: His (N); made in house; host or cells: Escherichia coli BL21-CodonPlus(DE3)-RIL
T1 sequence (O14965 1-403): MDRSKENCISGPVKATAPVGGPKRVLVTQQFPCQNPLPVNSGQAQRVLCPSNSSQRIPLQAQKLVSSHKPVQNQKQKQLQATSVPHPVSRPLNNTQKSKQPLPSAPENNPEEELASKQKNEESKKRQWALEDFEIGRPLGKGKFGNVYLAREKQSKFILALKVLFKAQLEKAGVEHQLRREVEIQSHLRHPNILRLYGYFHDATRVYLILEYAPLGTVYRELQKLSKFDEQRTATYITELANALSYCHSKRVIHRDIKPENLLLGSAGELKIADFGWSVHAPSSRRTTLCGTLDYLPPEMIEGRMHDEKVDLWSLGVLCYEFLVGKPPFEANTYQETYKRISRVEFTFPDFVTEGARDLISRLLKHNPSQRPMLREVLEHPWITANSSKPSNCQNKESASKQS
Description: Aurora A inhibitory activity (IMAP fluorescence polarization). Type of assay: biochemical. Particulars: 20 μM ATP, 30° C., 120 minutes. The source says: cDNA of N-terminal His-tagged human Aurora A was integrated into an expression vector, which was then highly expressed in Escherichia coli BL21-CodonPlus(DE3)-RIL cells. The Escherichia coli was harvested and lysed, and then the His-tagged human Aurora A protein was applied onto a nickel chelate column and eluted from the column with imidazole. The active fractions were desalted with a desalting column to give a purified enzyme.
For measurement of the activity of Aurora A, the substrate used was a synthetic peptide (5-FAM (5-carboxyfluorescein)-γ-aminobutyric acid-Ala-Leu-Arg-Arg-Ala-Ser-Leu-Gly-NH2) (SEQ.ID.NO.: 1), which was purchased from Toray Research Center, Inc.
For the phosphorylation reaction, the method by Upstate, Inc. [Kinase Profiler™ Assay Protocols] was referred to, and phosphorylation of the substrate was detected using IMAP® technology (Molecular Devices, Co. Ltd.) (Gaudet E W. et. al, J. Biomol. Screen, 8, 164-175 (2003)). Concretely, the phosphorylation reaction and the detection were carried out as follows:
The phosphorylation reaction was conducted using 384 well plate, and the reaction volume was 10 μl/well. The reaction buffer is comprised of 50 mM Tris-chloride buffer (pH 7.4), 15 mM magnesium acetate, and 0.2 mM ethylenediamine-N,N,N′,N′-tetraacetic acid (EDTA). Thereto, the purified Aurora A protein, 100 nM of the peptide substrate, and 20 μM of adenosine 5′-triphosphate (ATP) were added, and then the reaction was carried out at 30° C. for 120 minutes.
Thereafter, in order to terminate and detect the reaction, 30 μl of the IMAP (registered trademark) binding reagent (IMAP Progressive Binding Reagent, R7284) that had been diluted (1:400) in the 1×IMAP binding buffer A (IMAP Progressive Binding Buffer A, 5× stock, R7282) was added to each well. The solution stood still for 60 minutes in the dark, and then fluorescence polarization was measured using a high-end microplate reader (excitation wavelength: 485 nm; emission wavelength: 520 nm).
The compound to be tested was added to the reaction system such that a dilution series of the compound in dimethylsulfoxide (DMSO) was prepared, and then 0.5 μL of this solution was added for the testing to each well. Each control well was provided by adding 0.5 μL of DMSO to the well in place of the DMSO solution containing the compound to be tested.

Assay [2] concerns the target T2, GST-tagged human Aurora B(AurB)/His-tagged human INCENP complex proteins (Homo sapiens, UniProt Q96GD4).
T2 construct: GST; purchased Carna Biosciences, Inc
The assay is described as follows: Aurora B inhibitory activity (Method A, IMAP kit). The class given is biochemical. Particulars: 40 μM ATP, 25° C., 45 minutes. As for the experimental part:
An assay development kit for IMAP (registered trademark) (Aurora B), purchased from Carna Biosciences, Inc., was used for phosphorylation reaction, and the phosphorylation of a substrate was detected using the IMAP technology. The assay development kit used is comprised of an assay buffer, GST-tagged human Aurora B(AurB)/His-tagged human INCENP complex proteins (amino acid sequence: 803-916, AAU04398.1), and an ATP/substrate solution. Using the same, the phosphorylation reaction was conducted in accordance with a partially revised protocol attached to the kit, and then the phosphorylation of the substrate was detected using the IMAP technology.
For the phosphorylation reaction, 384 well plate was used, and the reaction volume was 10 μl/well. The composition of the reaction buffer (assay buffer) is comprised of 20 mM of HEPES buffer (pH 7.4), 0.01% Tween-20, and 2 mM of dithiothreitol (DTT). Thereto, AurB/INCENP complex protein, 100 nM of the substrate, and 40 μM of ATP, and 1 mM of magnesium salt were added, and then the reaction was conducted at 25° C. for 45 minutes. Thereafter, in order to terminate and detect the reaction, 30 μl of the IMAP (registered trademark) binding reagent (IMAP Progressive Binding Reagent, R7284) that had been diluted (1:400) in the 1×IMAP binding buffer A (IMAP Progressive Binding Buffer A, 5× stock, R7282) was added to each well. The solution stood still for 60 minutes in the dark, and then fluorescence polarization was measured using a high-end microplate reader (excitation wavelength: 485 nm; emission wavelength: 520 nm).
The compound to be tested was added to the reaction system such that a dilution series of the compound in DMSO was prepared, and then 0.5 μL of this solution was added for the testing to each well. Each control well was provided by adding 0.5 μL of DMSO to the well in place of the DMSO solution containing the compound to be tested.

In assay [3] the test system is Human cervical cancer cells (HeLa S3). The assay is described as follows: Effect by combined use of drugs in cells (with docetaxel), WST-8 method. The class given is cell-based. Particulars: docetaxel 0.3 nM alone, HeLa S3, three days, DMSO = 0%. As for the experimental part: Fetal calf serum (FCS) was purchased from Moregate Biotech, DMEM medium from Invitrogen Corp., docetaxel (tradename: Taxere) from Sigma-Aldrich, Inc., and WST-8 from Kishida Chemical Co., Ltd.
Human cervical cancer cells (HeLa S3) were obtained from the American Type Culture Collection (ATCC).
Cells were suspended in a DMEM medium containing 10% FCS, and the cell suspension was dispensed to two 96-well plastic plates at a rate of 750 cells/100 microliters per well. The plates were incubated overnight in 5% CO2-95% air at 37° C. A drug was subjected to graded dilution in dimethylsulfoxide and further diluted with DMSO or with a DMEM medium containing 10% FCS and also containing 0.6 nM docetaxel. Then, the dilutions were each dispensed to one of the plates on which cells had been disseminated, at a rate of 100 microliters per well. The final concentration of docetaxel at this stage was 0.3 nM. Also, the concentrations in the case of sole administration of the compound according to the invention were 0.003, 0.01, 0.03, 0.1, 0.3, 1, 3 and 10 μM. The plates were incubated for further three days in 5% CO2-95% air at 37° C. Cell growth after incubation was measured by the WST-8 method (H. Tominaga, et al., Anal. Commun., 36, 47-50 (1999)). Here, the WST-8 method refers to a method in which 20 microliters of a WST-8 reagent solution is added to each well, incubation is conducted at 37° C. for 60 minutes, the plate is stirred, and the amount of formazan produced is measured by a colorimetric method to determine the inhibitory rate of the drug. The growth inhibitory effects of docetaxel and of the compound according to the invention were determined, with the value obtained in sole treatment of DMSO being defined as 0%.

The structures appear in SMILES notation. Structures can show the parent of a compound that is named as a salt.

T2 sequence (Q96GD4 whole entry): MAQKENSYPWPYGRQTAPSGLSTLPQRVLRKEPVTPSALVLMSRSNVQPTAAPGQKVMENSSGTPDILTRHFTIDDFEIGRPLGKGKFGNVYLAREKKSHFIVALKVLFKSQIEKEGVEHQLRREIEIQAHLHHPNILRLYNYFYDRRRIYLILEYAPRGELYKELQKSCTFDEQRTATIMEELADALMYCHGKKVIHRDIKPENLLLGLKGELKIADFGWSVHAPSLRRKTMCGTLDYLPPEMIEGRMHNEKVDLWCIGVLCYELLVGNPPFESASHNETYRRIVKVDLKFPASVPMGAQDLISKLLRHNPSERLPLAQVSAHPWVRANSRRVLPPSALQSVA
T2 sequence (Q9NQS7 803-916 partner limits assumed): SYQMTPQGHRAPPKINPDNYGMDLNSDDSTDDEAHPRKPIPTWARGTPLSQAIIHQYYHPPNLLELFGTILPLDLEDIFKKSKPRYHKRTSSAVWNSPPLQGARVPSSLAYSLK

As to `Cc1cc(Nc2cc[nH]n2)nc(CC2CCN(C(=O)c3cccc(Cl)c3F)CC2)n1` [Example 3, 2-((1-(3-chloro-2-fluorobenzoyl)piperidin-4-yl)methyl)-6-methyl-N-1H-pyrazol-3-ylpyrimidin-4-amine trifluoroacetate], the IC50 in assay [1] worked out at 1.6 nM; in assay [2] it was 400 nM.
For `CCOC(=O)C1(Cc2cccc(Nc3cc[nH]n3)n2)CCN(C(=O)c2cccc(Cl)c2F)CC1` [Example 4, ethyl 1-(3-chloro-2-fluorobenzoyl)-4-((6-(1H-pyrazol-3-ylamino)pyridin-2-yl)methyl)piperidine-4-carboxylate] the same measures were 1.14 nM and greater than 1000 nM.
On to `CCOC(=O)C1(Cc2cccc(Nc3cc[nH]n3)n2)CCN(C(=O)c2cccc(C(F)(F)F)c2F)CC1` [Example 5, ethyl 1-(2-fluoro-3-(trifluoromethyl)benzoyl)-4-((6-(1H-pyrazol-3-ylamino)pyridin-2-yl)methyl)piperidine-4-carboxylate], for which the IC50 in assay [1] is 0.63 nM; in assay [2], 555 nM.
On the same counts, the results for `NC(=O)C1(Cc2cccc(Nc3cc[nH]n3)n2)CCN(C(=O)c2cccc(Cl)c2F)CC1` [Example 6, 1-(3-chloro-2-fluorobenzoyl)-4-((6-(1H-pyrazol-3-ylamino)pyridin-2-yl)methyl)piperidine-4-carboxamide] are 1.57 nM and greater than 1000 nM.
With `NC(=O)C1(Cc2cccc(Nc3cc[nH]n3)n2)CCN(C(=O)c2cccc(C(F)(F)F)c2F)CC1` [Example 7, 1-(2-fluoro-3-(trifluoromethyl)benzoyl)-4-((6-(1H-pyrazol-3-ylamino)pyridin-2-yl)methyl)piperidine-4-carboxamide], the values for the IC50 in assay [1] and in assay [2] were 0.61 nM and 135 nM, respectively.
Consider `CONC(=O)C1(Cc2cccc(Nc3cc[nH]n3)n2)CCN(C(=O)c2cccc(C(F)(F)F)c2F)CC1` [Example 8, 1-(2-fluoro-3-(trifluoromethyl)benzoyl)-N-methoxy-4-((6-(1H-pyrazol-3-ylamino)pyridin-2-yl)methyl)piperidine-4-carboxamide], for which the IC50 came to 0.79 nM in assay [1] and 555 nM in assay [2].
For `O=C(c1cccc(F)c1F)N1CCC(Cc2cccc(Nc3cc[nH]n3)n2)(c2n[nH]c(=O)o2)CC1` [Example 11, 5-(1-(2,3-difluorobenzoyl)-4-((6-(1H-pyrazol-3-ylamino)pyridin-2-yl)methyl)piperidin-4-yl)-1,3,4-oxadiazol-2(3H)-one trifluoroacetate] the same measures were 0.26 nM and 236 nM.
For `O=c1[nH]nc(C2(Cc3cccc(Nc4cc[nH]n4)n3)CCN(S(=O)(=O)c3cccc(Cl)c3Cl)CC2)o1` [Example 13, 5-(1((2,3-dichlorophenyl)sulfonyl)-4((6-(1H-pyrazol-3-ylamino)pyridin-2-yl)methyl)piperidin-4-yl)-1,3,4-oxadiazol-2(3H)-one trifluoroacetate] the same measures were 2.55 nM and 609 nM.
Regarding `Cc1cc(Nc2cccc(CC3(c4n[nH]c(=O)o4)CCN(C(=O)c4cccc(Cl)c4F)CC3)n2)n[nH]1` [Example 15, 5-(1-(3-chloro-2-fluorobenzoyl)-4-((6-((5-methyl-1H-pyrazol-3-yl)amino)pyridin-2-yl)methyl)piperidin-4-yl)-1,3,4-oxadiazol-2(3H)-one], the IC50 in assay [1] came out at 0.25 nM; in assay [2], 77.5 nM.
With `Cc1cc(Nc2cccc(CC3(c4n[nH]c(=O)o4)CCN(C(=O)c4cccc(F)c4F)CC3)n2)n[nH]1` [Example 16, 5-(1-(2,3-difluorobenzoyl)-4-((6-((5-methyl-1H-pyrazol-3-yl)amino)pyridin-2-yl)methyl)piperidin-4-yl)-1,3,4-oxadiazol-2(3H)-one], the IC50 in assay [1] was 0.41 nM; in assay [2], 157 nM.
On the same counts, the results for `Cc1cc(Nc2cc[nH]n2)nc(CC2(C(N)=O)CCN(C(=O)c3cccc(Cl)c3F)CC2)n1` [Example 18, 1-(3-chloro-2-fluorobenzoyl)-4-((4-methyl-6-(1H-pyrazol-3-ylamino)pyrimidin-2-yl)methyl)piperidine-4-carboxamide trifluoroacetate] are 1.23 nM and greater than 1000 nM.
Take `CC(=O)O[C@@]12CO[C@@H]1C[C@H](O)[C@@]1(C)C(=O)[C@H](O)C3=C(C)[C@@H](OC(=O)[C@H](O)[C@@H](NC(=O)OC(C)(C)C)c4ccccc4)C[C@@](O)([C@@H](OC(=O)c4ccccc4)[C@H]21)C3(C)C` [docetaxel, reference compound]: the inhibition at 0.0003 µM in assay [3] (Homo sapiens, HeLa S3, 72 h, read-out: Cell growth inhibitory effect by sole administration of docetaxel (0.3 nM) (%)) came out at 49.6%. For the same molecule, the “Cell growth inhibitory effect by sole administration of docetaxel (0.3 nM) (%)” value in assay [3] is on record as 51.6%.

The values are drawn from patent US8519136B2, “Aminopyridine derivatives having aurora a selective inhibitory action” (MSD K.K., priority 2008, dated 2013).
